Reference: article PMC5428509, “Irreversible inhibition of BTK kinase by a novel highly selective inhibitor CHMFL-BTK-11 suppresses inflammatory response in rheumatoid arthritis model” (Scientific Reports, 2017)

Experiments:
Experiment in all cases: biochemical
Parameters in all cases: KinomeScan competition binding panel (DiscoveRx), percent of control at 1 uM
Settings in all cases: read-out: Percent Control
EGFR(T790M) = EGFR(T790M) (Homo sapiens, UniProt P00533, T790M)
In short: (§1)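 KinomeScan technology used to profile binding across a panel of 456 kinases and mutants.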

EGFR(L747-T751del,Sins) = EGFR(L747-T751del,Sins) (Homo sapiens, UniProt P00533, DEL747-750/T751S)
In short: as §1

PDGFRA = PDGFRA (Homo sapiens, UniProt P16234)
In short: as §1

PRKG2 = PRKG2 (Homo sapiens, UniProt Q13237)
PRKG2, sequence (Q13237 whole entry): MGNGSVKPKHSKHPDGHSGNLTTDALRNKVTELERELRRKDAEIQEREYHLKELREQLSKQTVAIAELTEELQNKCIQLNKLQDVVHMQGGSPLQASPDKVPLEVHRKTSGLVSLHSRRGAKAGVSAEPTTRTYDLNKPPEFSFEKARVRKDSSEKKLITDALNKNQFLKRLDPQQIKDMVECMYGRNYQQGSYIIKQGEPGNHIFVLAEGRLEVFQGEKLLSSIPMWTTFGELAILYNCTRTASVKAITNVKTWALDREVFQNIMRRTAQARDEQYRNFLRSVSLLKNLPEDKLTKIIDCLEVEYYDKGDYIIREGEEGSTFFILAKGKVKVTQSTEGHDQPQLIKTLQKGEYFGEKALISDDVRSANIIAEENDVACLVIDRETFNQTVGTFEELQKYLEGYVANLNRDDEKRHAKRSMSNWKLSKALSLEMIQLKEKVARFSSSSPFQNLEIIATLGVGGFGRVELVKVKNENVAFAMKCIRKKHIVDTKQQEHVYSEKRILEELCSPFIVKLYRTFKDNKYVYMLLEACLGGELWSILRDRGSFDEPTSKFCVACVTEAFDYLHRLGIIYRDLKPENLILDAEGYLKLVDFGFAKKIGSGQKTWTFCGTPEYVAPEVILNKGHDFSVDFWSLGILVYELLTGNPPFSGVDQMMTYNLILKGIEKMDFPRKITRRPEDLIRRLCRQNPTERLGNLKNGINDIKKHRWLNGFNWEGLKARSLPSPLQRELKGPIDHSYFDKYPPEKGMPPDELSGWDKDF
In short: as §1

MYLK2 = MYLK2 (Homo sapiens, UniProt Q9H1R3)
MYLK2, sequence (Q9H1R3 whole entry): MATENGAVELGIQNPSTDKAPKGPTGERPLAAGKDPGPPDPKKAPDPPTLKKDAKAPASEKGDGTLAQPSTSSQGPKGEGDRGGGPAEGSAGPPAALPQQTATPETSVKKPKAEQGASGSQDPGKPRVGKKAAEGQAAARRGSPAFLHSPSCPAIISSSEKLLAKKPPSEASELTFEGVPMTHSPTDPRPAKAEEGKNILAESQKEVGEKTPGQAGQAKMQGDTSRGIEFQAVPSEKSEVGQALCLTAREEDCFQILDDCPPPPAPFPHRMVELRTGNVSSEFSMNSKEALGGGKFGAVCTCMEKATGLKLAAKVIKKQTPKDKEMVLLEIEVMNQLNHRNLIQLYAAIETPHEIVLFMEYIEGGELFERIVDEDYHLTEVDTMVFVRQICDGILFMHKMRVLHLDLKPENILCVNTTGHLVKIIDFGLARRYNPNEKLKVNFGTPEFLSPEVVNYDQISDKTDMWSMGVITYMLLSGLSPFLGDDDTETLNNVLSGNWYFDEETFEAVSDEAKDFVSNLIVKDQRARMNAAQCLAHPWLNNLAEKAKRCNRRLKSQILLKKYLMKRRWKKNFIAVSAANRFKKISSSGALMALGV
In short: as §1

OSR1 = target: T1, OSR1 (Homo sapiens, UniProt O95747)
T1 construct: gene OXSR1
T1 sequence (O95747 whole entry): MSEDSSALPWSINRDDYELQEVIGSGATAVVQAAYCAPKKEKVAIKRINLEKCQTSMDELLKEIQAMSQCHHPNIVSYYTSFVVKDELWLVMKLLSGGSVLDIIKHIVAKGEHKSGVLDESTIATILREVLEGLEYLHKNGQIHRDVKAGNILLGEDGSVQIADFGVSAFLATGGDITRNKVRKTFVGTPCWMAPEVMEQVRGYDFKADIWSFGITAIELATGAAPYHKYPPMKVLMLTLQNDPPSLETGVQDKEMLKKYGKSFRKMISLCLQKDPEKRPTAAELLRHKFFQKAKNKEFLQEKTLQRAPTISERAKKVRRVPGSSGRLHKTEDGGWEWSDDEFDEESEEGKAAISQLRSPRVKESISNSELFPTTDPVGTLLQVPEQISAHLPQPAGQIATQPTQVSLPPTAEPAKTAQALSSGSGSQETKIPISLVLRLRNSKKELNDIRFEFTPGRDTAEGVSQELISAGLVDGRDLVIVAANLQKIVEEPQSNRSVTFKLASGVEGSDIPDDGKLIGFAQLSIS
In short: as §1

PRKD3 = PRKD3 (Homo sapiens, UniProt O94806)
In short: as §1

RIOK3 = RIOK3 (Homo sapiens, UniProt O14730)
In short: as §1

PRKG1 = PRKG1 (Homo sapiens, UniProt Q13976)
In short: as §1

MAP4K2 = MAP4K2 (Homo sapiens, UniProt Q12851)
In short: as §1

MELK = MELK (Homo sapiens, UniProt Q14680)
MELK, sequence (Q14680 whole entry): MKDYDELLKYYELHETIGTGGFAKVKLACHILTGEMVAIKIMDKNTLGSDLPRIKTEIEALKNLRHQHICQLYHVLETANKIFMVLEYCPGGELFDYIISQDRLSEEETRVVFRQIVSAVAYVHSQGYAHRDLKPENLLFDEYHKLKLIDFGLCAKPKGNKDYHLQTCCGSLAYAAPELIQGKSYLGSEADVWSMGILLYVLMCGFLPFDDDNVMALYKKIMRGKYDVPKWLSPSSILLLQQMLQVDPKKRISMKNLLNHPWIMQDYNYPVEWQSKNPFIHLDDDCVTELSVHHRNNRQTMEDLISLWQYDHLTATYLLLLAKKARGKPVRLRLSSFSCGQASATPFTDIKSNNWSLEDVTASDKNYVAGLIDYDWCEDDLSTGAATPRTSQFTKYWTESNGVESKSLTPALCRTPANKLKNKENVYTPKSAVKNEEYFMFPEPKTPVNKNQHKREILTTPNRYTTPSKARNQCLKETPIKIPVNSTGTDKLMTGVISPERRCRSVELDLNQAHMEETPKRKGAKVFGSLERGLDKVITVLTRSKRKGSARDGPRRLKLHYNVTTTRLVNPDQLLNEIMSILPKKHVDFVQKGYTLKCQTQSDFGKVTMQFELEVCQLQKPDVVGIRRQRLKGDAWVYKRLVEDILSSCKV
In short: as §1

[1] = target: T2, JAK1(JH2domain-pseudokinase) (Homo sapiens, UniProt P23458)
T2 construct: JH2domain-pseudokinase
In short: as §1

PAK4 = PAK4 (Homo sapiens, UniProt O96013)
PAK4, sequence (O96013 whole entry): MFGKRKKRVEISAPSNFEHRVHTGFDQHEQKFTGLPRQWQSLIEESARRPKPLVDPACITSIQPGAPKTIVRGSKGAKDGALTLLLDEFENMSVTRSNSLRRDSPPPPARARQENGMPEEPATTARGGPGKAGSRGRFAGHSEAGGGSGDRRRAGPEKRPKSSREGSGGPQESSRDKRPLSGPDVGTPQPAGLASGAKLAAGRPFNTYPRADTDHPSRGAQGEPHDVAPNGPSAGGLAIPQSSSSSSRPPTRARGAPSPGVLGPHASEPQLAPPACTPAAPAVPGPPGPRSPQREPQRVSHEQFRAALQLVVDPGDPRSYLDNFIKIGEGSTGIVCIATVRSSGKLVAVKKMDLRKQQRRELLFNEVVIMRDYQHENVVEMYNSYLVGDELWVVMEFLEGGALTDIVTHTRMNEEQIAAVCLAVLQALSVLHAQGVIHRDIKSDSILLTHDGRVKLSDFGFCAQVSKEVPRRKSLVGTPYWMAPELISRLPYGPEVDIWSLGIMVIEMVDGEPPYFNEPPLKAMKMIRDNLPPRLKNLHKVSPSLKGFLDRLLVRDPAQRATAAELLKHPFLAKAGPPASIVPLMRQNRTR
In short: as §1

EGFR = EGFR (Homo sapiens, UniProt P00533)
In short: as §1

DYRK1B = DYRK1B (Homo sapiens, UniProt Q9Y463)
DYRK1B, sequence (Q9Y463 whole entry): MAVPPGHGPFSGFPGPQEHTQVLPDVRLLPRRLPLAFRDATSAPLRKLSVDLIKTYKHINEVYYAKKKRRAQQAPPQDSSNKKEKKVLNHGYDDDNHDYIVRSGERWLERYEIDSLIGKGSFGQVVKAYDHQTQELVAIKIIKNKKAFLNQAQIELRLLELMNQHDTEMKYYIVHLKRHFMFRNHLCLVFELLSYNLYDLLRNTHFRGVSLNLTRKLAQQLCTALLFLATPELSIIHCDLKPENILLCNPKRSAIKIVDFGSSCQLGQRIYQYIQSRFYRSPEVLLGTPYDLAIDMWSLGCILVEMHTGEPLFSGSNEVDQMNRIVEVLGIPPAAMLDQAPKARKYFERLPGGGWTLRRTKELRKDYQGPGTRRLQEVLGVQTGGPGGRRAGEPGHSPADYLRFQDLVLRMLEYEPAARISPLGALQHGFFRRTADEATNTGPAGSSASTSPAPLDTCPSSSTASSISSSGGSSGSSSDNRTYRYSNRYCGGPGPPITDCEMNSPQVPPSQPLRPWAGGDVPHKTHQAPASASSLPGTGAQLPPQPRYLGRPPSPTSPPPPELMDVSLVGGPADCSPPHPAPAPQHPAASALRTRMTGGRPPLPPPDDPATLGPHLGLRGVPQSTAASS
In short: as §1

MERTK = MERTK (Homo sapiens, UniProt Q12866)
In short: as §1

ACVR1 = ACVR1 (Homo sapiens, UniProt Q04771)
In short: as §1

[2] = target: T3, JAK1(JH1domain-catalytic) (Homo sapiens, UniProt P23458)
T3 construct: JH1domain-catalytic
In short: as §1

PLK4 = PLK4 (Homo sapiens, UniProt O00444)
In short: as §1

CHEK2 = CHEK2 (Homo sapiens, UniProt O96017)
In short: as §1

CSNK2A2 = CSNK2A2 (Homo sapiens, UniProt P19784)
In short: as §1

IRAK3 = IRAK3 (Homo sapiens, UniProt Q9Y616)
IRAK3, sequence (Q9Y616 whole entry): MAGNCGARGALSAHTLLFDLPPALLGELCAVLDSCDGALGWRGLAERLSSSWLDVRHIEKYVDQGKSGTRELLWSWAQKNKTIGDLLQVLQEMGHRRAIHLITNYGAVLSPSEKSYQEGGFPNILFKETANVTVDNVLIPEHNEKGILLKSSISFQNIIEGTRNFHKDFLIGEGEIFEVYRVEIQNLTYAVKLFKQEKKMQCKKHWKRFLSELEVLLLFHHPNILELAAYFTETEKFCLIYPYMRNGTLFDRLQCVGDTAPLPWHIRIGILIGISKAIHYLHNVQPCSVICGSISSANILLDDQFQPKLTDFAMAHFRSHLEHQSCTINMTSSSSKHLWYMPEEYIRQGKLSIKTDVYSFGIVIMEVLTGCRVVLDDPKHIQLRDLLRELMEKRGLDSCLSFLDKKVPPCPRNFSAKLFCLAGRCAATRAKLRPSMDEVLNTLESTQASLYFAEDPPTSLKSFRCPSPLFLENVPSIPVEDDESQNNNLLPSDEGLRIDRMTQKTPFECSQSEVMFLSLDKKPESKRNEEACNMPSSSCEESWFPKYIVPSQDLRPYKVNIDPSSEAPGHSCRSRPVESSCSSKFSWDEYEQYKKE
In short: as §1

PFTK1 = target: T4, PFTK1 (Homo sapiens, UniProt O94921)
T4 construct: gene CDK14
T4 sequence (O94921 whole entry): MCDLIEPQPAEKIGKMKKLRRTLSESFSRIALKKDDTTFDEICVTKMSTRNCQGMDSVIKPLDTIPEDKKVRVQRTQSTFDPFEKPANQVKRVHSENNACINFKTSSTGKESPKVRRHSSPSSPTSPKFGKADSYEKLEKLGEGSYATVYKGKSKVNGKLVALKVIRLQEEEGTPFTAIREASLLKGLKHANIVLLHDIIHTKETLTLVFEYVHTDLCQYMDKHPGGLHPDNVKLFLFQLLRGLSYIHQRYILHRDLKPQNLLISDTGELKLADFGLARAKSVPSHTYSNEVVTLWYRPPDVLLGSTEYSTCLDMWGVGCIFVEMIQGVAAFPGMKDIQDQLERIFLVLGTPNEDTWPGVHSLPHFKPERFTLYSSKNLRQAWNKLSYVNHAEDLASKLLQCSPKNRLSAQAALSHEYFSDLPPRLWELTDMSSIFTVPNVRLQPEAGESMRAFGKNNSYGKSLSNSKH
In short: as §1

DDR1 = DDR1 (Homo sapiens, UniProt Q08345)
In short: as §1

PIP5K2B = target: T5, PIP5K2B (Homo sapiens, UniProt P78356)
T5 construct: gene PIP4K2B
In short: as §1

With `C=CC(=O)Nc1cc(-n2c(=O)ccc3cnc4ccc(-n5cccn5)cc4c32)ccc1C` [CHMFL-BTK-11] the remaining binding at 1 µM (EGFR(T790M)) was 58%, the remaining binding at 1 µM (EGFR(L747-T751del,Sins)) was 77% and the remaining binding at 1 µM (PDGFRA) was 100%. It also gave a remaining binding at 1 µM (PRKG2) of 98%, a remaining binding at 1 µM (MYLK2) of 100% and a remaining binding at 1 µM (OSR1) of 96%. For the same compound, the remaining binding at 1 µM (PRKD3) was 100%, the remaining binding at 1 µM (RIOK3) was 80% and the remaining binding at 1 µM (PRKG1) was 100%. It also gave a remaining binding at 1 µM (MAP4K2) of 98%, a remaining binding at 1 µM (MELK) of 73% and a remaining binding at 1 µM [1] of 82%. It also gave a remaining binding at 1 µM (PAK4) of 95%, a remaining binding at 1 µM (EGFR) of 88% and a remaining binding at 1 µM (DYRK1B) of 65%. The remaining binding at 1 µM (MERTK) was 100%, the remaining binding at 1 µM (ACVR1) was 100% and the remaining binding at 1 µM [2] was 100%. It also gave a remaining binding at 1 µM (PLK4) of 56%, a remaining binding at 1 µM (CHEK2) of 100% and a remaining binding at 1 µM (CSNK2A2) of 52%. The remaining binding at 1 µM (IRAK3) was 98%, the remaining binding at 1 µM (PFTK1) was 100% and the remaining binding at 1 µM (DDR1) was 100%. For the same compound, the remaining binding at 1 µM (PIP5K2B) was 100%.
